Reference: ChEMBL document CHEMBL1201862, “PubChem BioAssay data set” (2004)
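Exposure lasted 48 hours, with cells grown in 96-well plates and compounds tested at five concentrations. Here, GI50 denotes the concentration required for 50% inhibition of growth.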 Calls of active or inactive are those of the source. Rule as the data show it: active = GI50 up to about 1.1 µM and inactive = higher.

Columns and labels:
Assay in all cases: NCI-60 cell line screen, 48 h
A549 = system: A549
EKVX = system: EKVX
HCC 2998 = system: HCC 2998
HCT-116 = system: HCT-116
HCT-15 = system: HCT-15
Hs-578T = system: Hs-578T
KM12 = system: KM12
MOLT-4 = system: MOLT-4
NCI-H226 = system: NCI-H226
NCI-H23 = system: NCI-H23
NCI/ADR-RES = system: NCI/ADR-RES
OVCAR-3 = system: OVCAR-3
SF-268 = system: SF-268
SK-MEL-2 = system: SK-MEL-2
SN12C = system: SN12C
SNB-19 = system: SNB-19
U-251 = system: U-251
UACC-257 = system: UACC-257
UACC-62 = system: UACC-62
UO-31 = system: UO-31

| SMILES | GI50 (A549) | GI50 (EKVX) | GI50 (HCC 2998) | GI50 (HCT-116) | GI50 (HCT-15) [µM] | GI50 (Hs-578T) | GI50 (KM12) | GI50 (MOLT-4) | GI50 (NCI-H226) | GI50 (NCI-H23) | GI50 (NCI/ADR-RES) | GI50 (OVCAR-3) | GI50 (SF-268) | GI50 (SK-MEL-2) | GI50 (SN12C) | GI50 (SNB-19) | GI50 (U-251) | GI50 (UACC-257) | GI50 (UACC-62) | GI50 (UO-31) |
| --- | --- | --- | --- | --- | --- | --- | --- | --- | --- | --- | --- | --- | --- | --- | --- | --- | --- | --- | --- | --- |
| CC12Cc3cc4c(cc3C1(c1ccc([N+](=O)[O-])cc1)OCCO2)OCO4 (stereo not given) | > 100 µM (inactive) | 37.2 µM (inactive) | > 100 µM (inactive) | 65.3 µM (inactive) | 44.2 | 25.5 µM (inactive) | > 100 µM (inactive) | > 100 µM (inactive) | 26.2 µM (inactive) | 42.9 µM (inactive) | 95.5 µM (inactive) | > 100 µM (inactive) | 22.8 µM (inactive) | 32.2 µM (inactive) | 55.6 µM (inactive) | 28.6 µM (inactive) | 26.9 µM (inactive) | > 100 µM (inactive) | 36.8 µM (inactive) | > 100 µM (inactive) |
| CC(C)=CC(O)C/C(C)=C/CC/C(C)=C/CCC1(C)C(CCCO)/C(=C(/C)C=O)CCC1(C)O (stereo not given) | 28.4 µM (inactive) | 27.5 µM (inactive) | 26.4 µM (inactive) | 40 µM (inactive) | 46.3 | 35.6 µM (inactive) | 22.2 µM (inactive) | 24.7 µM (inactive) | 74.3 µM (inactive) | 20 µM (inactive) | 65.3 µM (inactive) | 86.1 µM (inactive) | 40.5 µM (inactive) | 59.3 µM (inactive) | 31.9 µM (inactive) | 97.7 µM (inactive) | 34 µM (inactive) | 31.5 µM (inactive) | 35.9 µM (inactive) | 33.7 µM (inactive) |
| CN1CC2=C(N=C(S)NC2c2ccc(Cl)cc2)/C(=C/c2ccc(Cl)cc2)C1 (stereo not given) | 19 µM (inactive) | 19.9 µM (inactive) | 16.6 µM (inactive) | 15.7 µM (inactive) | 13.8 | 16.6 µM (inactive) | 18.5 µM (inactive) | 5.32 µM (inactive) | > 10 µM (inactive) | 20 µM (inactive) | 17.2 µM (inactive) | 15.3 µM (inactive) | 23.9 µM (inactive) | 13.3 µM (inactive) | 17.2 µM (inactive) | > 10 µM (inactive) | 17.2 µM (inactive) | 20 µM (inactive) | 18.2 µM (inactive) | 25.8 µM (inactive) |
| CN(CCCNC(=O)c1cc(-c2ccccc2)nc2ccccc12)CCCNC(=O)c1cc(-c2ccccc2)nc2ccccc12 | 3.96 µM (inactive) | 6.1 µM (inactive) | 1.93 µM (inactive) | 1.79 µM (inactive) | 4 | 4.17 µM (inactive) | 2.02 µM (inactive) | 2.45 µM (inactive) | 3.81 µM (inactive) | 6.35 µM (inactive) | 2.84 µM (inactive) | 3.27 µM (inactive) | 5.32 µM (inactive) | 1.96 µM (inactive) | 5.85 µM (inactive) | 5.97 µM (inactive) | 2.04 µM (inactive) | 1.78 µM (inactive) | 2.07 µM (inactive) | 2.31 µM (inactive) |
| O=C(OCc1ccccc1)N(CCCCN(CCCNCc1ccccc1)C(=O)OCc1ccccc1)CCCNCc1ccccc1 | 0.782 µM (active) | 1.49 µM (inactive) | 0.462 µM (active) | 0.249 µM (active) | 0.352 | 1.31 µM (inactive) | 0.43 µM (active) | 0.194 µM (active) | 1.05 µM (active) | 1.77 µM (inactive) | 1.71 µM (inactive) | 1.39 µM (inactive) | 1.57 µM (inactive) | 1.36 µM (inactive) | 0.834 µM (active) | 0.431 µM (active) | 0.258 µM (active) | 0.36 µM (active) | 0.881 µM (active) | 1.38 µM (inactive) |
| O=C1Nc2ccc(Br)cc2/C1=N/N1C(=O)C(=O)N(C2CCCCC2)C1=S | 5.26 µM (inactive) | 4.98 µM (inactive) | 3.64 µM (inactive) | 2.72 µM (inactive) | 2.42 | 8.38 µM (inactive) | 3.48 µM (inactive) | 2.26 µM (inactive) | 7.03 µM (inactive) | 7.11 µM (inactive) | 3.22 µM (inactive) | 2.47 µM (inactive) | 6.7 µM (inactive) | 1.41 µM (inactive) | 3.43 µM (inactive) | 9.64 µM (inactive) | 2.93 µM (inactive) | 9.55 µM (inactive) | 3.05 µM (inactive) | 1.51 µM (inactive) |
| COc1ccc(/C=C/[N+](=O)[O-])cc1 | 2.51 µM (inactive) | 13.2 µM (inactive) | < 0.01 µM (active) | 6.67 µM (inactive) | 3.7 | 3.05 µM (inactive) | 3.18 µM (inactive) | 2.8 µM (inactive) | 3.6 µM (inactive) | 9.75 µM (inactive) | 30.7 µM (inactive) | 3.61 µM (inactive) | 2.92 µM (inactive) | 20 µM (inactive) | 16.3 µM (inactive) | 3.52 µM (inactive) | 4.03 µM (inactive) | 2.94 µM (inactive) | 14.9 µM (inactive) | 11.3 µM (inactive) |
| COC(=O)C1=C(C)NC(C)=C(C(=O)OC)C1c1nc2sccn2c1[N+](=O)[O-] | > 100 µM (inactive) | 96.4 µM (inactive) | > 100 µM (inactive) | > 100 µM (inactive) | > 100 | > 100 µM (inactive) | > 100 µM (inactive) | > 100 µM (inactive) | > 100 µM (inactive) | > 100 µM (inactive) | > 100 µM (inactive) | > 100 µM (inactive) | > 100 µM (inactive) | > 100 µM (inactive) | > 100 µM (inactive) | > 100 µM (inactive) | > 100 µM (inactive) | > 100 µM (inactive) | > 100 µM (inactive) | > 100 µM (inactive) |
| C/C(=C\CSCC(N)C(=O)O)CC/C=C(\C)CNc1ccccc1 (stereo not given) | > 100 µM (inactive) | > 100 µM (inactive) | > 100 µM (inactive) | > 100 µM (inactive) | > 100 | > 100 µM (inactive) | > 100 µM (inactive) | > 100 µM (inactive) | > 100 µM (inactive) | > 100 µM (inactive) | > 100 µM (inactive) | > 100 µM (inactive) | > 100 µM (inactive) | > 100 µM (inactive) | > 100 µM (inactive) | > 100 µM (inactive) | > 100 µM (inactive) | > 100 µM (inactive) | > 100 µM (inactive) | 82 µM (inactive) |
| C/C(=N\NC(=S)NCCCNC(=S)N/N=C(\C)c1ccccn1)c1ccccn1 | 3.48 µM (inactive) | 3.79 µM (inactive) | 5.71 µM (inactive) | 2.88 µM (inactive) | 1.3 | > 47.6 µM (inactive) | 2.94 µM (inactive) | 2.51 µM (inactive) | 6.92 µM (inactive) | 7.33 µM (inactive) | 2.22 µM (inactive) | 2.95 µM (inactive) | 2.62 µM (inactive) | 2.06 µM (inactive) | 1.98 µM (inactive) | > 34.8 µM (inactive) | 2.77 µM (inactive) | 2.75 µM (inactive) | 2.66 µM (inactive) | 1.83 µM (inactive) |
| Cc1cc(=O)oc2cc(SC(=O)N(C)C)ccc12 | > 100 µM (inactive) | 61 µM (inactive) | > 100 µM (inactive) | > 100 µM (inactive) | > 100 | > 100 µM (inactive) | > 100 µM (inactive) | > 100 µM (inactive) | > 100 µM (inactive) | > 100 µM (inactive) | > 100 µM (inactive) | > 100 µM (inactive) | > 100 µM (inactive) | > 100 µM (inactive) | > 100 µM (inactive) | > 100 µM (inactive) | > 100 µM (inactive) | > 100 µM (inactive) | 57.1 µM (inactive) | > 100 µM (inactive) |
| Cc1c(C(=O)O)n2c(S)nnc2c2ccccc12 | > 100 µM (inactive) | > 100 µM (inactive) | > 100 µM (inactive) | > 100 µM (inactive) | > 100 | > 100 µM (inactive) | > 100 µM (inactive) | > 100 µM (inactive) | > 100 µM (inactive) | > 100 µM (inactive) | > 100 µM (inactive) | > 100 µM (inactive) | > 100 µM (inactive) | > 100 µM (inactive) | > 100 µM (inactive) | > 100 µM (inactive) | > 100 µM (inactive) | > 100 µM (inactive) | > 100 µM (inactive) | > 100 µM (inactive) |
| CCOC(=O)C(C#N)C1=CC(=O)C(=O)c2ccc(O)cc21 (stereo not given) | > 100 µM (inactive) | > 100 µM (inactive) | > 100 µM (inactive) | 55.1 µM (inactive) | > 100 | 17.2 µM (inactive) | > 100 µM (inactive) | > 100 µM (inactive) | 41.2 µM (inactive) | 19.3 µM (inactive) | > 100 µM (inactive) | 64 µM (inactive) | > 100 µM (inactive) | 23.2 µM (inactive) | > 100 µM (inactive) | > 100 µM (inactive) | 48.5 µM (inactive) | 31.9 µM (inactive) | 17.1 µM (inactive) | 30.5 µM (inactive) |
| c1ccc(C[N+]23CN4CN(CN(C4)C2)C3)cc1 | 29.2 µM (inactive) | > 100 µM (inactive) | 20.4 µM (inactive) | 27.7 µM (inactive) | 31.4 | > 100 µM (inactive) | 33.2 µM (inactive) | 22.7 µM (inactive) | > 100 µM (inactive) | 19.1 µM (inactive) | 78.5 µM (inactive) | > 100 µM (inactive) | 29.3 µM (inactive) | 17 µM (inactive) | 53.2 µM (inactive) | 26.4 µM (inactive) | 18.4 µM (inactive) | 37.4 µM (inactive) | 17.3 µM (inactive) | 20.8 µM (inactive) |
